Like-named read-outs stand apart in the source and are kept apart here.
Assays:
Target C = experiment: RT-qPCR canonical junction panel assay, Target C mRNA; format: cell-based; conditions: Table 4, read-out: Target C IC50 (decrease in CJ mRNA levels)
Protocol: Compounds described herein were used to modulate RNA transcript abundance in cells. The expression of a target mRNA was measured by detecting the formation of an exon-exon junction in the canonical transcript (CJ). A compound mediated exon-inclusion event was detected by observing an increase in formation of a new junction with an alternative exon (AJ). Real-time qPCR assays were used to detect these splicing switches and interrogate the potency of various compounds towards different target genes. A high-throughput real time quantitative PCR (RT-qPCR) assay was developed to measure these two isoforms of the mRNA (CJ and AJ) for exemplary genes, such as HTT, SMN2, and MYB, together with a control housekeeping gene, GAPDH or GUSB or PPIA, used for normalization. Briefly, the A673 or K562 cell line was treated with various compounds described herein (e.g., compounds of Formula (I)). After treatment, the levels of the HTT, MYB, or SMN2 mRNA targets were determined from each sample of cell lysate by cDNA synthesis followed by qPCR.
The data analysis was performed by first determining the ΔCt vs the housekeeper gene. This ΔCt was then normalized against the DMSO control (ΔΔCt) and converted to RQ (relative quantification) using the 2^(−ΔΔCt) equation. The RQ were then converted to a percentage response by arbitrarily setting an assay window of 3.5 and 4.0 ΔCt for HTT-CJ and MYB-CJ respectively and an assay window of 9 and 3 ΔCt for HTT-AJ and MYB-AJ in 96 well format (50,000 K562 cells/well and 15,000 A673 cells per well) and an assay window of 3 and 4 ΔCt for HTT-CJ and MYB-CJ respectively and an assay window of 5 and 3 ΔCt for HTT-AJ and MYB-AJ respectively in 384 well format (8,000 K562 cells/well example). […] The percentage response was then fitted to the 4 parametric logistic equation to evaluate the concentration dependence of compound treatment. The increase in AJ mRNA is reported as AC50 (compound concentration having 50% response in AJ increase) while the decrease in CJ mRNA levels is reported as IC50 (compound concentration having […] in CJ decrease).
Additional studies were carried out for a larger panel of genes using the protocol provided above. The junction between flanking upstream and downstream exons was used to design canonical junction Qpcr assays. At least one of the forward primer, reverse primer or the CY5-labeled 5′ nuclease probe (with 3′ quencher such as ZEN/Iowa Black FQ) was designed to overlap with the exon junction to capture the CJ Mrna transcript. BLAST was used to confirm the specificity of the probeset and parameters suCH As melting temperature, GC content, amplicon size, and primer dimer formation are considered during their design. Data for the decrease in CJ Mrna levels for four exemplary genes (HTT, SMN2, MYB, and Target C) analyzed in this panel are reported as IC50 (compound concentration having […] in CJ decrease).

MYB mRNA = experiment: RT-qPCR splicing assay, MYB mRNA canonical (CJ) and alternative (AJ) junction; format: cell-based, human; conditions: Homo sapiens; for AC50: MYB alternative junction mRNA increase, read-out: MYB AJ (increase in alternative junction mRNA, AC50)
How it was run: (§1)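 Canonical and alternative-exon junction isoforms were quantified by RT-qPCR in cell lysates, with ΔCt against a housekeeper (GAPDH/GUSB/PPIA), then ΔΔCt vs DMSO, converted to 2^(−ΔΔCt) and percent response. K562 or A673 cells were exposed for 24 h to 11 concentrations (3-fold, top final 10 uM).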

SMN2 mRNA = experiment: RT-qPCR splicing assay, SMN2 mRNA; format: cell-based, human; conditions: Homo sapiens, canonical junction qPCR panel, Table 4; read-out: SMN2 IC50 (decrease in CJ mRNA levels)
How it was run: as §1

K562 cells = experiment: Cell Titer Glo 2.0 cell viability (toxicity) assay, K562; conditions: 500 cells/well, 72 hours
HTT mRNA = experiment: RT-qPCR splicing assay, HTT mRNA canonical (CJ) and alternative (AJ) junction; format: cell-based, human; conditions: Homo sapiens; for AC50: HTT alternative junction mRNA increase, read-out: HTT AJ (increase in alternative junction mRNA, AC50)
How it was run: as §1

[1] = RT-qPCR, MYB canonical junction mRNA decrease, read-out: MYB CJ (decrease in canonical junction mRNA, IC50)
[2] = canonical junction qPCR panel, Table 4, read-out: MYB IC50 (decrease in CJ mRNA levels)
[3] = RT-qPCR, HTT canonical junction mRNA decrease, read-out: HTT CJ (decrease in canonical junction mRNA, IC50)
[4] = canonical junction qPCR panel, Table 4, read-out: HTT IC50 (decrease in CJ mRNA levels)

IC50 (Target C) | IC50 (MYB mRNA; [1]) | IC50 (MYB mRNA; [2]) | IC50 (SMN2 mRNA) | IC50 (HTT mRNA; [3]) | IC50 (HTT mRNA; [4]) | Compound | AC50 (MYB mRNA; RT-qPCR) | Effect of Exemplary Compounds on Cell Viability, K562 (K562 cells) | AC50 (HTT mRNA; RT-qPCR)
> 10000 nM | 100 to 1000 nM | 100 to 1000 nM | < 100 nM | 100 to 1000 nM | 100 to 1000 nM | Cc1cn2cc(-c3ncc4cc(N5C[C@H](C)NC6(CC6)C5)ccc4n3)cc(F)c2n1 (single isomer, unassigned) [Compound 814] | 100 to 1000 nM | B (B represents 100-1000 nM) | 1000 to 10000 nM
1000 to 10000 nM | < 100 nM | < 100 nM | < 100 nM | 100 to 1000 nM | 100 to 1000 nM | Cc1cn2cc(-c3ncc4cc(N5C[C@H](C)N[C@@H](C)C5)ccc4n3)cc(Cl)c2n1 (single isomer, unassigned) [Compound 818] | < 100 nM | A (A represents <100 nM) | 1000 to 10000 nM
> 10000 nM | 1000 to 10000 nM | 1000 to 10000 nM | 100 to 1000 nM | > 10000 nM | > 10000 nM | C[C@H]1CN(c2ccc3nc(-c4cc(F)c5nncn5c4)ncc3c2)C[C@H](C)N1 (single isomer, unassigned) [Compound 820] | 1000 to 10000 nM | C (C represents 1000-9999 nM) | > 10000 nM

Second part, the compound before the results:

Compound | IC50 (Target C) | IC50 (MYB mRNA; [1]) | IC50 (MYB mRNA; [2]) | IC50 (SMN2 mRNA) | IC50 (HTT mRNA; [3]) | IC50 (HTT mRNA; [4]) | AC50 (MYB mRNA; RT-qPCR) | Effect of Exemplary Compounds on Cell Viability, K562 (K562 cells) | AC50 (HTT mRNA; RT-qPCR)
Cc1cn2cc(-c3ncc4cc(N5C[C@@H](C)NC6(CC6)C5)ccc4n3)cc(F)c2n1 (single isomer, unassigned) [Compound 815] | > 10000 nM | 100 to 1000 nM | 100 to 1000 nM | < 100 nM | 1000 to 10000 nM | 1000 to 10000 nM | 100 to 1000 nM | B (B represents 100-1000 nM) | 1000 to 10000 nM
Cc1nc2c(F)cc(-c3ncc4cc(N5C[C@H](C)N[C@@H](C)C5)ccc4n3)cn2c1F (single isomer, unassigned) [Compound 822] | 1000 to 10000 nM | 100 to 1000 nM | 100 to 1000 nM | 100 to 1000 nM | 1000 to 10000 nM | 1000 to 10000 nM | 1000 to 10000 nM | B (B represents 100-1000 nM) | > 10000 nM
C[C@@H]1CN(c2ccc3nc(-c4cc(F)c5nn(C)cc5c4)ncc3c2)C[C@H](C)N1 [Compound 780, 6-[(3R,5S)-3,5-dimethylpiperazin-1-yl]-2-(7-fluoro-2-methylindazol-5-yl)quinazoline] | 1000 to 10000 nM | 100 to 1000 nM | 100 to 1000 nM | < 100 nM | 1000 to 10000 nM | 1000 to 10000 nM | 100 to 1000 nM | B (B represents 100-1000 nM) | 1000 to 10000 nM
Cc1nc(-c2cc(F)c3nn(C)cc3c2)nc2ccc(N3C[C@@H](C)N[C@@H](C)C3)cc12 [Compound 781, 6-[(3R,5S)-3,5-dimethylpiperazin-1-yl]-2-(7-fluoro-2-methylindazol-5-yl)-4-methylquinazoline] | > 10000 nM | 1000 to 10000 nM | 1000 to 10000 nM | 100 to 1000 nM | > 10000 nM | > 10000 nM | 1000 to 10000 nM | C (C represents 1000-9999 nM) | > 10000 nM
